From patent US20230016424A1, “HYBRID AMIDE DERIVATIVES OF AMPHOTERICIN B” (The Board of Trustees of the University of Illinois, priority 2019, published 2023)
≈ marks a conversion by molar mass, not a printed value.

What was measured:
[1] = test system: C. krusei; test: MIC; type: cell-based
[2] = test system: A. fumigatus 1100; test: MIC; type: cell-based
[3] = test system: A. fumigatus 1163; test: MIC; type: cell-based
[4] = test system: C. albicans; test: MIC; type: cell-based
[5] = test system: C. albicans SN250, C. albicans, C. krusei, C. glabrata, C. tropicalis, A. fumigatus 91, 1163, 1100; test: Average MIC over the tested strains; type: cell-based; conditions: for MIC: average over the 8 listed strains; for Average MIC for AmB analogue: value of the corresponding AmB analogue, not of the C2’epi compound
[6] = test system: C. glabrata; test: MIC; type: cell-based
[7] = test system: C. tropicalis; test: MIC; type: cell-based
[8] = test system: C. albicans SN250; test: MIC; type: cell-based, Candida albicans
[9] = test system: A. fumigatus 91; test: MIC; type: cell-based

CC1C=CC=CC=CC=CC=CC=CC=CC(OC2OC(C)C(O)C(N)C2O)CC2OC(O)(CC(O)CC(O)C(O)CCC(O)CC(O)CC(=O)OC(C)C(C)C1O)CC(O)C2C(=O)NCC(O)CO (centres unmarked) [AK]
MIC C. krusei [1]: 0.4 µM (≈ 0.399 µg/mL)
MIC A. fumigatus 1100 [2]: 0.75 µM (≈ 0.748 µg/mL)
MIC A. fumigatus 1163 [3]: 0.5 µM (≈ 0.499 µg/mL)
MIC C. albicans [4]: 0.25 µM (≈ 0.249 µg/mL)
MIC [5]: 0.431 µM
MIC C. glabrata [6]: 0.1 µM (≈ 0.0997 µg/mL)
MIC C. tropicalis [7]: 0.3 µM (≈ 0.299 µg/mL)
MIC C. albicans SN250 [8]: 0.15 µM (≈ 0.15 µg/mL)
MIC A. fumigatus 91 [9]: 1 µM (≈ 0.997 µg/mL)

CCC(CO)NC(=O)C1C(O)CC2(O)CC(O)CC(O)C(O)CCC(O)CC(O)CC(=O)OC(C)C(C)C(O)C(C)C=CC=CC=CC=CC=CC=CC=CC(OC3OC(C)C(O)C(N)C3O)CC1O2 (centres unmarked) [AD]
MIC C. krusei [1]: 0.5 µM (≈ 0.498 µg/mL)
MIC A. fumigatus 1100 [2]: 1 µM (≈ 0.995 µg/mL)
MIC A. fumigatus 1163 [3]: 1 µM (≈ 0.995 µg/mL)
MIC C. albicans [4]: 0.35 µM (≈ 0.348 µg/mL)
MIC [5]: 0.731 µM
MIC C. glabrata [6]: 0.3 µM (≈ 0.299 µg/mL)
MIC C. tropicalis [7]: 0.4 µM (≈ 0.398 µg/mL)
MIC C. albicans SN250 [8]: 0.3 µM (≈ 0.299 µg/mL)
MIC A. fumigatus 91 [9]: 2 µM (≈ 1.99 µg/mL)

CC1C=CC=CC=CC=CC=CC=CC=CC(OC2OC(C)C(O)C(N)C2O)CC2OC(O)(CC(O)CC(O)C(O)CCC(O)CC(O)CC(=O)OC(C)C(C)C1O)CC(O)C2C(=O)NC1CCC1 (centres unmarked) [BE]
MIC C. krusei [1]: 4 µM (≈ 3.91 µg/mL)
MIC A. fumigatus 1100 [2]: 4 µM (≈ 3.91 µg/mL)
MIC A. fumigatus 1163 [3]: 8 µM (≈ 7.82 µg/mL)
MIC C. albicans [4]: 2 µM (≈ 1.95 µg/mL)
MIC [5]: 3.563 µM
Average MIC for AmB analogue [5]: 1.281 μM
MIC C. glabrata [6]: 0.5 µM (≈ 0.489 µg/mL)
MIC C. tropicalis [7]: 1 µM (≈ 0.977 µg/mL)
MIC C. albicans SN250 [8]: 1 µM (≈ 0.977 µg/mL)
MIC A. fumigatus 91 [9]: 8 µM (≈ 7.82 µg/mL)

CC1C=CC=CC=CC=CC=CC=CC=CC(OC2OC(C)C(O)C(N)C2O)CC2OC(O)(CC(O)CC(O)C(O)CCC(O)CC(O)CC(=O)OC(C)C(C)C1O)CC(O)C2C(=O)NCC(O)CO (mixture of isomers) [AJ]
MIC C. krusei [1]: 0.3 µM
MIC A. fumigatus 1100 [2]: 0.4 µM
MIC A. fumigatus 1163 [3]: 0.3 µM
MIC C. albicans [4]: 0.20 µM
MIC [5]: 0.329 µM
MIC C. glabrata [6]: 0.08 µM
MIC C. tropicalis [7]: 0.2 µM
MIC C. albicans SN250 [8]: 0.15 µM
MIC A. fumigatus 91 [9]: 1 µM

CC(C)CC(CO)NC(=O)C1C(O)CC2(O)CC(O)CC(O)C(O)CCC(O)CC(O)CC(=O)OC(C)C(C)C(O)C(C)C=CC=CC=CC=CC=CC=CC=CC(OC3OC(C)C(O)C(N)C3O)CC1O2 (centres unmarked) [AE]
MIC C. krusei [1]: 1 µM (≈ 1.02 µg/mL)
MIC A. fumigatus 1100 [2]: 1 µM (≈ 1.02 µg/mL)
MIC A. fumigatus 1163 [3]: 1 µM (≈ 1.02 µg/mL)
MIC C. albicans [4]: 0.75 µM (≈ 0.767 µg/mL)
MIC [5]: 0.956 µM
MIC C. glabrata [6]: 0.4 µM (≈ 0.409 µg/mL)
MIC C. tropicalis [7]: 0.5 µM (≈ 0.512 µg/mL)
MIC C. albicans SN250 [8]: 1 µM (≈ 1.02 µg/mL)
MIC A. fumigatus 91 [9]: 2 µM (≈ 2.05 µg/mL)

CC(CO)NC(=O)C1C(O)CC2(O)CC(O)CC(O)C(O)CCC(O)CC(O)CC(=O)OC(C)C(C)C(O)C(C)C=CC=CC=CC=CC=CC=CC=CC(OC3OC(C)C(O)C(N)C3O)CC1O2 (centres unmarked) [AC]
MIC C. krusei [1]: 0.45 µM (≈ 0.442 µg/mL)
MIC A. fumigatus 1100 [2]: 1 µM (≈ 0.981 µg/mL)
MIC A. fumigatus 1163 [3]: 1 µM (≈ 0.981 µg/mL)
MIC C. albicans [4]: 0.3 µM (≈ 0.294 µg/mL)
MIC [5]: 0.713 µM
MIC C. glabrata [6]: 0.3 µM (≈ 0.294 µg/mL)
MIC C. tropicalis [7]: 0.35 µM (≈ 0.343 µg/mL)
MIC C. albicans SN250 [8]: 0.3 µM (≈ 0.294 µg/mL)
MIC A. fumigatus 91 [9]: 2 µM (≈ 1.96 µg/mL)

CC1C=CC=CC=CC=CC=CC=CC=CC(OC2OC(C)C(O)C(N)C2O)CC2OC(O)(CC(O)CC(O)C(O)CCC(O)CC(O)CC(=O)OC(C)C(C)C1O)CC(O)C2C(=O)NC1CC1 (centres unmarked) [BD]
MIC C. krusei [1]: 4 µM (≈ 3.85 µg/mL)
MIC A. fumigatus 1100 [2]: 4 µM (≈ 3.85 µg/mL)
MIC A. fumigatus 1163 [3]: 6 µM (≈ 5.78 µg/mL)
MIC C. albicans [4]: 1 µM (≈ 0.963 µg/mL)
MIC [5]: 3.063 µM
Average MIC for AmB analogue [5]: 0.500 μM
MIC C. glabrata [6]: 0.5 µM (≈ 0.482 µg/mL)
MIC C. tropicalis [7]: 0.5 µM (≈ 0.482 µg/mL)
MIC C. albicans SN250 [8]: 0.5 µM (≈ 0.482 µg/mL)
MIC A. fumigatus 91 [9]: 8 µM (≈ 7.71 µg/mL)

COCCNC(=O)C1C(O)CC2(O)CC(O)CC(O)C(O)CCC(O)CC(O)CC(=O)OC(C)C(C)C(O)C(C)C=CC=CC=CC=CC=CC=CC=CC(OC3OC(C)C(O)C(N)C3O)CC1O2 (centres unmarked) [AG]
MIC C. krusei [1]: 1 µM (≈ 0.981 µg/mL)
MIC A. fumigatus 1100 [2]: 1 µM (≈ 0.981 µg/mL)
MIC A. fumigatus 1163 [3]: 1 µM (≈ 0.981 µg/mL)
MIC C. albicans [4]: 035 µM (≈ 34.3 µg/mL)
MIC [5]: 0.806 µM
MIC C. glabrata [6]: 0.3 µM (≈ 0.294 µg/mL)
MIC C. tropicalis [7]: 0.4 µM (≈ 0.392 µg/mL)
MIC C. albicans SN250 [8]: 0.4 µM (≈ 0.392 µg/mL)
MIC A. fumigatus 91 [9]: 2 µM (≈ 1.96 µg/mL)
